Data from patent US20230312556A1, “ARYLAMIDE COMPOUND, PHARMACEUTICAL COMPOSITION COMPRISING SAME, AND PREPARATION METHOD THEREFOR AND USE THEREOF” (SICHUAN KELUN-BIOTECH BIOPHARMACEUTICAL CO., LTD., priority 2020, published 2023).

How the values were obtained:
[1] = test system: human melanoma cell A375 (BRAF-V600E mutation); assay: Cancer cell proliferation inhibition assay, A375; assay type: cell-based; details: A-375, 72 h incubation, Cell Titer Glo
Source text: (§1) The inhibitory effects of the compounds of the present invention on cancer cell proliferation were further evaluated by testing the effects of the compounds of the present invention on the growth of cancer cells.
(§2) In this example, human melanoma cell A375 (BRAF-V600E mutation, purchased from the Cell Bank of the Chinese Academy of Sciences) and human hepatocellular carcinoma cell HepG2 (NRAS-Q61K mutation, purchased from ATCC, USA) were employed.
(§3) In this example, the test compounds at various concentrations (100000 nM, 30000 nM, 10000 nM, 3000 nM, 1000 nM, 300 nM, 100 nM, 30 nM, 10 nM) were added to the above cells, and the incubation was performed for 72 h. The inhibitory activity of the compounds was tested by measuring ATP in living cells using the Cell Titer Glo Kit (Promega).
(§4) The IC50 values of the compounds of the present invention for each tested cell were determined, and the test results are as follows: […]

[2] = test system: human hepatocellular carcinoma cell HepG2 (NRAS-Q61K mutation); assay: Cancer cell proliferation inhibition assay, HepG2; assay type: cell-based; details: 72 h incubation, Cell Titer Glo
Source text: as §1, §2, §3, §4

wild-type BRAF enzyme = wild-type BRAF enzyme (Homo sapiens (Human), UniProt P15056); assay: RAF inhibition assay (TB-PMAP2K1 kit), wild-type BRAF; assay type: biochemical; details: FLUORESCEIN-MAP2K1 substrate, 60 min reaction
Sequence of wild-type BRAF enzyme (P15056 whole entry): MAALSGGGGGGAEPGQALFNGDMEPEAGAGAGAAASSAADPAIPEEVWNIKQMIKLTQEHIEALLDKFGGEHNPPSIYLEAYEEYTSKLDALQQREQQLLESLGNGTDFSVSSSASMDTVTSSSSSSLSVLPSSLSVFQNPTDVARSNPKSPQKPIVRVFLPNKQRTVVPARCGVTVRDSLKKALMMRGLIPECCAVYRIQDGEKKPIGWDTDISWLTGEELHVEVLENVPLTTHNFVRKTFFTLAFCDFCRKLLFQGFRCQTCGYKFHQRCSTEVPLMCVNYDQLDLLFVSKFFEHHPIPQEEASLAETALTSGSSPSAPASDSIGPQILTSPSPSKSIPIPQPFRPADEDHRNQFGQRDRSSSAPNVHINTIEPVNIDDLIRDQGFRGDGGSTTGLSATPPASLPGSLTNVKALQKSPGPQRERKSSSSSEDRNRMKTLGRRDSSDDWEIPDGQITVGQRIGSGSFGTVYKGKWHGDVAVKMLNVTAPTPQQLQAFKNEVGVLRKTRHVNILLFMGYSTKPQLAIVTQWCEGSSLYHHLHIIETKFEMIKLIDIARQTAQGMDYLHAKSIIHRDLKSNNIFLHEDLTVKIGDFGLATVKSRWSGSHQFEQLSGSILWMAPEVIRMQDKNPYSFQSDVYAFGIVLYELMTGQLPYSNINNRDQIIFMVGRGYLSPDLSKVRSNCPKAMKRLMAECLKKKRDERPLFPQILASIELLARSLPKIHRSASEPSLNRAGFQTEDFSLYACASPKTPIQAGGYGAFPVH
Method: Assay protocol: the inhibitory effects of the compounds of the present invention on the wild-type BRAF enzyme, mutant CRAF enzyme (RAF1 Y340D and Y341D) and mutant BRAF enzyme (BRAF-V600E) activity were determined according to the instructions of the TB-PMAP2K1 (PSER217/221) kit (ThermoFisher). Different RAF enzymes and substrates (FLUORESCEIN-MAP2K1) were pre-incubated with test compounds at various concentrations at room temperature for 15 min, and then the adenosine triphosphate (ATP) was added to initiate the reaction. After incubation at room temperature for 60 min, EDTA and Tb-labeled anti-pMAP2K1 [pS217/221] antibody solutions were added, and incubation was performed at room temperature for 60 min before the detection of the fluorescence values of the compounds in each group. With the vehicle group (DMSO) as the negative control and the buffer group (without RAF enzyme) as the blank control, the relative inhibitory activity percentage (i.e., the inhibition rate) of a compound at different concentrations was calculated according to the following formula:
Relative inhibitory activity percentage=1−(Compound group at various concentrations−blank control)/(negative control−blank control)*100%
The relative inhibitory activity percentages of the compounds at different concentrations were plotted against the compound concentrations, the curve was fitted according to a four-parameter model, and the IC50 value was calculated according to the following formula:
y=min+(max−min)/(1+(x/IC50)^(−Hillslope))
wherein y is the relative inhibitory activity percentage, max and min are respectively the maximum and minimum values of the fitted curve, x is the logarithm concentration of the compound, and Hillslope is the slope of the curve.

Compound: Cc1ccc2c(Cc3cccc(C(F)(F)F)c3)nccc2c1NC(=O)c1csc2c(N)ncnc12 [Compound 19, 4-amino-N-(6-methyl-1-(3-(trifluoromethyl)benzyl)isoquinolin-5-yl)thieno[3,2-d]pyrimidine-7-carboxamide]
- IC50 [1]: 163 ± 21.3 nM
- IC50 [2]: 136 ± 21.3 nM
- IC50 (wild-type BRAF enzyme): 21.6 ± 4.85 nM

Compound: Cc1ccc2c(C(=O)c3cccc(C(F)(F)F)c3)nccc2c1NC(=O)c1csc2c(N)ncnc12 [Compound 22, 4-amino-N-(6-methyl-1-(3-(trifluoromethyl)benzoyl)isoquinolin-5-yl)thieno[3,2-d]pyrimidine-7-carboxamide]
- IC50 (wild-type BRAF enzyme): 50.2 ± 8.47 nM

Compound: Cc1ccc2c(C(O)c3cccc(C(F)(F)F)c3)nccc2c1NC(=O)c1csc2c(N)ncnc12 (stereo not shown) [Compound 23, 4-amino-N-(1-(hydroxy(3-(trifluoromethyl)phenyl)methyl)-6-methylisoquinolin-5-yl)thieno[3,2-d]pyrimidine-7-carboxamide]
- IC50 [1]: 64.7 ± 4.22 nM
- IC50 (wild-type BRAF enzyme): 51.4 ± 1.64 nM

Compound: Cc1ccc2c(C(O)c3ccc(Cl)cc3F)nccc2c1NC(=O)c1csc2c(N)ncnc12 (stereo not shown) [Compound 28, 4-amino-N-(1-((4-chloro-2-fluorophenyl)(hydroxy)methyl)-6-methylisoquinolin-5-yl)thieno[3,2-d]pyrimidine-7-carboxamide]
- IC50 [1]: 98.8 ± 10.2 nM
- IC50 (wild-type BRAF enzyme): 9.43 ± 0.76 nM

Compound: Cc1ccc2c(C(C)Oc3ccccc3)nccc2c1NC(=O)c1csc2c(N)ncnc12 (stereo not shown) [Compound 35, 4-amino-N-(6-methyl-1-(1-phenoxyethyl)isoquinolin-5-yl)thieno[3,2-d]pyrimidine-7-carboxamide]
- IC50 (wild-type BRAF enzyme): 125 ± 3.5 nM

Compound: Cc1ccc2c(Nc3cccc(Cl)c3)nccc2c1NC(=O)c1cccc2c(N)ncnc12 [Compound 38, 4-amino-N-(1-((3-chlorophenyl)amino)-6-methylisoquinolin-5-yl)quinazoline-8-carboxamide]
- IC50 [1]: 96.7 ± 14.3 nM
- IC50 [2]: 38.1 ± 3.6 nM
- IC50 (wild-type BRAF enzyme): 23.2 ± 2.67 nM

Compound: Cc1ccc2c(Nc3ccccc3F)nccc2c1NC(=O)c1cccc2c(N)ncnc12 [Compound 39, 4-amino-N-(1-((2-fluorophenyl)amino)-6-methylisoquinolin-5-yl)quinazoline-8-carboxamide]
- IC50 [2]: 27.1 ± 2.5 nM
- IC50 (wild-type BRAF enzyme): 8.44 ± 2.46 nM

Compound: Cc1ccc2c(Nc3ccc(F)c(Cl)c3)nccc2c1NC(=O)c1cnc2c(N)ncnn12 [Compound 58, 4-amino-N-(1-((3-chloro-4-fluorophenyl)amino)-6-methylisoquinolin-5-yl)imidazo[2,1-f][1,2,4]triazine-7-carboxamide]
- IC50 [2]: 37.6 ± 3.34 nM
- IC50 (wild-type BRAF enzyme): 10.8 ± 1.09 nM

Compound: Cc1ccc2c(Nc3ccnc(C(F)(F)F)c3)nccc2c1NC(=O)c1cccc2c(N)ncnc12 [Compound 71, 4-amino-N-(6-methyl-1-((2-(trifluoromethyl)pyridin-4-yl)amino)isoquinolin-5-yl)quinazoline-8-carboxamide]
- IC50 [1]: 170 ± 13.8 nM
- IC50 [2]: 53 ± 9.7 nM

Compound: CCOc1ccc(Nc2nccc3c(NC(=O)c4cccc5c(N)ncnc45)c(C)ccc23)c(F)c1 [Compound 74, 4-amino-N-(1-((4-ethoxy-2-fluorophenyl)amino)-6-methylisoquinolin-5-yl)quinazoline-8-carboxamide]
- IC50 [1]: 62.7 ± 12.5 nM
- IC50 [2]: 62.3 ± 9.2 nM

Compound: COc1ccc(Nc2nccc3c(NC(=O)c4cccc5c(N)ncnc45)c(C)ccc23)cn1 [Compound 75, 4-amino-N-(1-((6-methoxypyridin-3-yl)amino)-6-methylisoquinolin-5-yl)quinazoline-8-carboxamide]
- IC50 [1]: 67.7 ± 15.1 nM
- IC50 [2]: 34 ± 7.6 nM

Compound: Cc1ccc2c(Nc3cccc(Cl)c3F)nccc2c1NC(=O)c1cc(O)cc2c(N)ncnc12 [Compound 76, 4-amino-N-(1-((3-chloro-2-fluorophenyl)amino)-6-methylisoquinolin-5-yl)-6-hydroxyquinazoline-8-carboxamide]
- IC50 [1]: 202 ± 5.74 nM
- IC50 [2]: 147 ± 19.2 nM

Compound: Cc1ccc2c(Nc3ccc4c(c3)OCCO4)nccc2c1NC(=O)c1cccc2c(N)ncnc12 [Compound 77, 4-amino-N-(1-((2,3-dihydrobenzo[b][1,4]dioxin-6-yl)amino)-6-methylisoquinolin-5-yl)quinazoline-8-carboxamide]
- IC50 [1]: 31.6 ± 7.42 nM
- IC50 [2]: 51.4 ± 8.5 nM

Compound: Cc1ccc2c(Nc3ccc(C#N)cc3F)nccc2c1NC(=O)c1cccc2c(N)ncnc12 [Compound 78, 4-amino-N-(1-((4-cyano-2-fluorophenyl)amino)-6-methylisoquinolin-5-yl)quinazoline-8-carboxamide]
- IC50 [1]: 63.5 ± 2.6 nM
- IC50 [2]: 56.4 ± 5.8 nM

Compound: Cc1ccc2c(Nc3cccc(Cl)c3F)nccc2c1NC(=O)c1cc(OCCN2CCOCC2)cc2c(N)ncnc12 [Compound 79, 4-amino-N-(1-((3-chloro-2-fluorophenyl)amino)-6-methylisoquinolin-5-yl)-6-(2-morpholinoethoxy)quinazoline-8-carboxamide]
- IC50 [1]: 72.2 ± 13 nM
- IC50 [2]: 145 ± 12.3 nM

Compound: Cc1ccc2c(Nc3cc(C#N)ccc3F)nccc2c1NC(=O)c1cccc2c(N)ncnc12 [Compound 80, 4-amino-N-(1-((5-cyano-2-fluorophenyl)amino)-6-methylisoquinolin-5-yl)quinazoline-8-carboxamide]
- IC50 [1]: 167 ± 8.47 nM
- IC50 [2]: 75.4 ± 6 nM

Compound: Cc1ccc2c(Nc3ccc4c(c3)CN(C)CC4)nccc2c1NC(=O)c1cccc2c(N)ncnc12 [Compound 82, 4-amino-N-(6-methyl-1-((2-methyl-1,2,3,4-tetrahydroisoquinolin-7-yl)amino)isoquinolin-5-yl)quinazoline-8-carboxamide]
- IC50 [1]: 141 ± 44.1 nM
- IC50 [2]: 245 ± 27.3 nM

Compound: Cc1ccc2c(Nc3cccc(C#N)c3F)nccc2c1NC(=O)c1cccc2c(N)ncnc12 [Compound 83, 4-amino-N-(1-((3-cyano-2-fluorophenyl)amino)-6-methylisoquinolin-5-yl)quinazoline-8-carboxamide]
- IC50 [1]: 61.9 ± 6.7 nM
- IC50 [2]: 50.5 ± 8.48 nM

Compound: Cc1ccc2c(Nc3cc(Cl)ccc3F)nccc2c1NC(=O)c1cc(F)cc2c(N)ncnc12 [Compound 84, 4-amino-N-(1-((5-chloro-2-fluorophenyl)amino)-6-methylisoquinolin-5-yl)-6-fluoroquinazoline-8-carboxamide]
- IC50 [1]: 165 ± 6.5 nM
- IC50 [2]: 67.2 ± 9.93 nM

Compound: Cc1ccc2c(Nc3cccc(Cl)c3F)nccc2c1NC(=O)c1cc(OCCO)cc2c(N)ncnc12 [Compound 86, 4-amino-N-(1-((3-chloro-2-fluorophenyl)amino)-6-methylisoquinolin-5-yl)-6-(2-hydroxyethoxy)quinazoline-8-carboxamide]
- IC50 [1]: 60.6 ± 2.8 nM
- IC50 [2]: 48 ± 5.36 nM

Compound: COc1ccc(F)c(Nc2nccc3c(NC(=O)c4cccc5c(N)ncnc45)c(C)ccc23)c1 [Compound 87, 4-amino-N-(1-((2-fluoro-5-methoxyphenyl)amino)-6-methylisoquinolin-5-yl)quinazoline-8-carboxamide]
- IC50 [1]: 56 ± 2.5 nM
- IC50 [2]: 37.7 ± 7.05 nM

Compound: Cc1ccc(Nc2nccc3c(NC(=O)c4cccc5c(N)ncnc45)c(C)ccc23)c(F)c1 [Compound 88, 4-amino-N-(1-((2-fluoro-4-methylphenyl)amino)-6-methylisoquinolin-5-yl)quinazoline-8-carboxamide]
- IC50 [1]: 55.4 ± 8 nM
- IC50 [2]: 70.2 ± 9.8 nM

Compound: Cc1ccc2c(Nc3cc(Br)ccc3F)nccc2c1NC(=O)c1cccc2c(N)ncnc12 [Compound 91, 4-amino-N-(1-((5-bromo-2-fluorophenyl)amino)-6-methylisoquinolin-5-yl)quinazoline-8-carboxamide]
- IC50 [1]: 87.1 ± 10.4 nM
- IC50 [2]: 140 ± 17 nM
